Data published in paper PMC5733478, “A Non-imaging High Throughput Approach to Chemical Library Screening at the Unmodified Adenosine-A3 Receptor in Living Cells” (Frontiers in Pharmacology, 2017).
Where a name gives a salt, the structure may show the parent alone.

target: T1, human A3AR (Homo sapiens, UniProt P0DMS8); experiment: LOPAC library primary screen: single concentration (10 μM) inhibition of 25 nM CA200645 binding, PHERAstar FS; conditions: not given
T1 construct: expressed in transfected cells
T1 sequence (P0DMS8 1-318): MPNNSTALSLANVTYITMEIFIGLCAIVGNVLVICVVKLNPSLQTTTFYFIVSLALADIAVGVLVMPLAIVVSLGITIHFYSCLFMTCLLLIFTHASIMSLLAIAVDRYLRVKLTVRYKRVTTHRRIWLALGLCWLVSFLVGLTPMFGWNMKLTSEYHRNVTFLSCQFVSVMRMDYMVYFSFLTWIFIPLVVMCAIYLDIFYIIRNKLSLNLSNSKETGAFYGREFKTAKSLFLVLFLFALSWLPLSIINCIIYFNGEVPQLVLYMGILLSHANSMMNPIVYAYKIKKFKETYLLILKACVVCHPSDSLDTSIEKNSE

| Compound | % 25 nM CA200645 binding |
| --- | --- |
| C[N+](C)(C)CCOC(=O)CCC(=O)OCC[N+](C)(C)C [Succinylcholine chloride] | 98.6 ± 15.7% |
| CC1=C(CC(=O)O)c2cc(F)ccc2/C1=C\c1ccc(S(C)(=O)=O)cc1 [Sulindac sulfone] | 84.5 ± 13.2% |
| CCN(CC)CCNC(=O)c1c(C)[nH]c(/C=C2\C(=O)Nc3ccc(F)cc32)c1C [Sunitinib malate] | 97.4 ± 12.4% |
| CC(=O)/C=C1\C(=O)N(C)c2ccccc21 [Supercinnamaldehyde] | 98.9 ± 0.6% |
| Cc1ccc(C(=O)Nc2ccc(S(=O)(=O)[O-])c3cc(S(=O)(=O)[O-])cc(S(=O)(=O)[O-])c23)cc1NC(=O)c1cccc(NC(=O)Nc2cccc(C(=O)Nc3cc(C(=O)Nc4ccc(S(=O)(=O)[O-])c5cc(S(=O)(=O)[O-])cc(S(=O)(=O)[O-])c45)ccc3C)c2)c1.[Na+].[Na+].[Na+].[Na+].[Na+].[Na+] [Suramin sodium salt] | 93.4 ± 9.0% |
| O=C(Nc1ccncc1)c1cc([N+](=O)[O-])ccc1Cl [T0070907] | 110.9 ± 6.0% |
| Brc1c(Br)c(Br)c2n[nH]nc2c1Br [TBB] | 67.4 ± 13.4% |
| Brc1c(Br)c(Br)c2[nH]cnc2c1Br [TBBz] | 74.5 ± 15.0% |
| Clc1cnc(Oc2ccc(Oc3ncc(Cl)cc3Cl)cc2)c(Cl)c1 [TCPOBOP] | 93.7 ± 8.4% |
| CCN1/C(=C/C(C)=O)Sc2ccc(OC)cc21 [TG003] | 77.3 ± 17.0% |
| Cl.O=c1[nH]oc2c1CCNC2 [THIP hydrochloride] | 100.3 ± 3.4% |
| CCN(CC)CCCCCCCCOC(=O)c1cc(OC)c(OC)c(OC)c1.Cl [TMB-8 hydrochloride] | 95.0 ± 0.4% |
| CCCCCCC(=O)OC1CC(C)(C)NC(C)(C)C1.Cl [TMPH hydrochloride] | 95.1 ± 13.7% |
| O=[N+]([O-])c1ccc(CNc2nc(NCc3cccc(C(F)(F)F)c3)nc3nc[nH]c23)cc1 [TNP] | 61.8 ± 11.7% |
| CP(=O)(O)C1=CCNCC1 [TPMPA] | 99.7 ± 3.7% |
| C/C(=C\c1ccc(C(=O)O)cc1)c1ccc2c(c1)C(C)(C)CCC2(C)C [TTNPB] | 92.9 ± 11.5% |
| CC/C(=C(\c1ccccc1)c1ccc(OCCN(C)C)cc1)c1ccccc1 [Tamoxifen] | 83.1 ± 23.3% |
| Cc1scc2c1N(C(=O)CN1CCN(C)CC1)c1ccccc1NC2=O [Telenzepine dihydrochloride] | 107.0 ± 15.2% |
| CC(C)(C)NCC(O)c1cc(O)cc(O)c1.CC(C)(C)NCC(O)c1cc(O)cc(O)c1.O=S(=O)(O)O (centres unmarked) [Terbutaline hemisulfate] | 102.8 ± 10.1% |
| CC(C)(C)c1ccc(C(O)CCCN2CCC(C(O)(c3ccccc3)c3ccccc3)CC2)cc1 (centres unmarked) [Terfenadine] | 101.9 ± 5.3% |

| Compound | % 25 nM CA200645 binding |
| --- | --- |
| COc1cc2c(cc1OC)C1CC(=O)C(CC(C)C)CN1CC2 (centres unmarked) [Tetrabenazine] | 91.3 ± 18.4% |
| CCCCNc1ccc(C(=O)OCCN(C)C)cc1 [Tetracaine hydrochloride] | 85.8 ± 26.7% |
| CC[N+](CC)(CC)CC [Tetraethylammonium chloride] | 94.7 ± 8.6% |
| CCN(CC)C(=S)SSC(=S)N(CC)CC [Tetraethylthiuram disulfide] | 88.1 ± 9.2% |
| c1ccc2c(c1)CCCC2C1=NCCN1 (centres unmarked) [Tetrahydrozoline hydrochloride] | 98.2 ± 6.4% |
| c1ccc(C2CN3CCSC3=N2)cc1 (centres unmarked) [Tetramisole hydrochloride] | 95.5 ± 22.8% |
| C/C=C(/C)C(=O)O[C@H]1C(C)=C2[C@H]([C@@H]1OC(=O)CCCCCCC)[C@@](C)(OC(C)=O)C[C@H](OC(=O)CCC)[C@@]1(O)[C@H]2OC(=O)[C@@]1(C)O [Thapsigargin] | 65.1 ± 10.7% |
| Cn1cnc2c1c(=O)[nH]c(=O)n2C [Theobromine] | 101.7 ± 4.5% |
| NC(=S)c1ccc[n+]([C@@H]2O[C@@H](COP(=O)([O-])OP(=O)(O)OC[C@H]3O[C@@H](n4cnc5c(N)ncnc54)C(OP(=O)([O-])O)[C@H]3O)C(O)C2O)c1.[Na+] (some centres unmarked) [Thio-NADP sodium] | 101.4 ± 10.4% |
| S=C(NC1CCCCC1)N1CCC(c2cnc[nH]2)CC1 [Thioperamide maleate] | 99.7 ± 10.4% |
| CSc1ccc2c(c1)N(CCC1CCCCN1C)c1ccccc1S2 (centres unmarked) [Thioridazine hydrochloride] | 102.5 ± 9.6% |
| CCN(CC)CCNC(=O)c1cc(S(C)(=O)=O)ccc1OC [Tiapride hydrochloride] | 98.9 ± 15.2% |
| Clc1ccc2nsnc2c1NC1=NCCN1 [Tizanidine hydrochloride] | 107.2 ± 6.1% |
| Cc1cccc(C)c1NC(=O)C(C)N (centres unmarked) [Tocainide hydrochloride] | 102.0 ± 15.0% |
| Cc1ccc(S(=O)(=O)NC(=O)NN2CCCCCC2)cc1 [Tolazamide] | 109.2 ± 9.0% |
| CCCCNC(=O)NS(=O)(=O)c1ccc(C)cc1 [Tolbutamide] | 101.8 ± 7.4% |
| CNCC[C@@H](Oc1ccccc1C)c1ccccc1 [Tomoxetine] | 97.5 ± 8.3% |
| CC[C@@]1(O)C(=O)OCc2c1cc1n(c2=O)Cc2cc3c(CN(C)C)c(O)ccc3nc2-1.Cl.O [Topotecan hydrochloride hydrate] | 102.0 ± 7.8% |
| CCOC(=O)[C@H](CCc1ccccc1)N[C@@H](C)C(=O)N1[C@H](C(=O)O)C[C@H]2CCCC[C@@H]21 [Trandolapril] | 99.7 ± 12.5% |
| COc1ccc(/C=C/C(=O)Nc2ccccc2C(=O)O)cc1OC [Tranilast] | 95.7 ± 1.4% |

| Compound | % 25 nM CA200645 binding |
| --- | --- |
| N[C@@H]1C[C@H]1c1ccccc1 [Tranylcypromine hydrochloride] | 100.1 ± 11.2% |
| O=c1n(CCCN2CCN(c3cccc(Cl)c3)CC2)nc2ccccn12 [Trazodone hydrochloride] | 104.7 ± 11.3% |
| C[C@]12C=CC(=O)C=C1CC[C@H]1[C@@H]3C[C@@H](O)[C@](O)(C(=O)CO)[C@@]3(C)C[C@H](O)[C@@]12F [Triamcinolone] | 95.9 ± 21.3% |
| Nc1nc(N)c2nc(-c3ccccc3)c(N)nc2n1 [Triamterene] | 95.3 ± 10.4% |
| O=C(CCCN1CCC(O)(c2cccc(C(F)(F)F)c2)CC1)c1ccc(F)cc1 [Trifluperidol hydrochloride] | 102.8 ± 9.3% |
| CN(C)CCCN1c2ccccc2Sc2ccc(C(F)(F)F)cc21 [Triflupromazine hydrochloride] | 99.0 ± 16.0% |
| OC(CCN1CCCCC1)(c1ccccc1)C1CCCCC1 (centres unmarked) [Trihexyphenidyl hydrochloride] | 99.4 ± 5.7% |
| Cc1ccc(/C(=C\CN2CCCC2)c2ccccn2)cc1.Cl [Triprolidine hydrochloride] | 90.2 ± 0.5% |
| N[C@@H]1[C@H]2CN(c3nc4c(cc3F)c(=O)c(C(=O)O)cn4-c3ccc(F)cc3F)C[C@@H]12 [Trovafloxacin mesylate] | 94.4 ± 17.2% |
| NCCc1c[nH]c2ccccc12 [Tryptamine hydrochloride] | 98.8 ± 5.7% |
| CC(C)(C)NCC(O)c1ccccc1Cl (centres unmarked) [Tulobuterol hydrochloride] | 99.9 ± 4.7% |
| CC(C)(C)c1cc(C=C(C#N)C#N)cc(C(C)(C)C)c1O [Tyrphostin A9] | 93.2 ± 14.5% |
| N#CC(C#N)=C(N)/C(C#N)=C/c1ccc(O)cc1 [Tyrphostin AG 112] | 102.8 ± 4.7% |
| N#C/C(=C\c1ccc(O)c(O)c1)C(=O)Nc1ccccc1 [Tyrphostin AG 494] | 91.5 ± 7.4% |
| N#C/C(=C\c1ccc(O)c(O)c1)C(=O)c1ccc(O)c(O)c1 [Tyrphostin AG 538] | 90.2 ± 14.0% |
| CC(C)(C)c1cc(/C=C(\C#N)C(N)=S)cc(C(C)(C)C)c1O [Tyrphostin AG 879] | 57.5 ± 23.0% |
| COc1cc2ncnc(Nc3cccc(Cl)c3)c2cc1OC [Tyrphostin AG 1478] | 90.3 ± 8.9% |
| N#CC(=C(/N)Sc1ccccc1N)/C(C#N)=C(/N)Sc1ccccc1N [U0126] | 97.2 ± 19.0% |
| COc1ccc2c(c1)CC[C@@H]1[C@@H]2CC[C@]2(C)[C@@H](NCCCCCCN3C(=O)C=CC3=O)CC[C@@H]12 [U-73122] | 73.1 ± 7.4% |

same assay, conditions: % of control wells (1% DMSO and 25 nM CA200645); compounds at 10 µM; […]; mean ± SD, three experiments in duplicate

| Compound | % 25 nM CA200645 binding |
| --- | --- |
| CN1CCN(CCCN2c3ccccc3Sc3ccc(C(F)(F)F)cc32)CC1 [Trifluoperazine dihydrochloride] | 97.1 ± 25.1% |

same assay, conditions: % of control wells (1% DMSO and 25 nM CA200645); compounds at 10 µM; whole live cells expressing the A3AR; mean ± SD, three experiments in duplicate

| Compound | % 25 nM CA200645 binding |
| --- | --- |
| C=C/C(C)=C/[C@@]1(C)SC(=O)C(C)=C1O [Thiolactomycin] | 98.5 ± 7.2% |
| CCCCNc1c(C(=O)OCC)c(C)nc2c1cnn2CC [Tracazolate] | 98.9 ± 4.3% |
| COc1cc2c(cc1OC)-c1c/c(=N\c3c(C)cc(C)cc3C)n(C)c(=O)n1CC2 [Trequinsin hydrochloride] | 88.3 ± 40.0% |
| N#CC(C#N)=Cc1ccc(O)c(O)c1 [Tyrphostin 23] | 84.9 ± 6.4% |

same assay, conditions: compounds tested at 10 µM; % of control wells (1% DMSO and 25 nM CA200645); whole live cells expressing the A3AR; mean ± SD, three experiments in duplicate

| Compound | % 25 nM CA200645 binding |
| --- | --- |
| Nc1ccc(S(=O)(=O)Nc2ccnn2-c2ccccc2)cc1 [Sulfaphenazole] | 89.1 ± 34.9% |
| NCCS(=O)(=O)O [Taurine] | 106.8 ± 10.4% |
| CCCCCCCCCCCCCCSCC(=O)O [Tetradecylthioacetic acid] | 101.3 ± 12.1% |
| N#CC(C#N)=C(N)/C(C#N)=C/c1cc(O)c(O)c(O)c1 [Tyrphostin 51] | 94.9 ± 2.9% |
